From US20170202835A1, “OSMOLYTE-CONTAINING PREPARATION FOR THE TREATMENT OF DRY MUCOUS MEMBRANES” (Bitop AG, priority 2007, published 2017)
“Also recorded” adds a separate entry of the source.

test system: TR146 cells; experiment: Mucus production in TR146 cells (PAS staining, image analysis); assay type: cell-based, human; conditions: 0.5% FCS, 16 h incubation
Method: To evaluate possible effects of compatible solutes on mucus production an in vitro cell culture model was used. For this purpose a mucus producing cell line, TR146, served as a model for the situation in the human mouth. The cells were incubated with ectoine and other substances. After treatment the cells were stained with PAS (Periodic Acid-Schiff) to determine the mucus content.
TR146 cells were seeded and grown on glass plates in 96 wells until they reached nearly confluence. The glass plates were coated with Poly-L-Lysine to ensure a good attachment of the cells. After reaching confluence the cells were set to 0.5% FCS (Fetal Calf Serum) and were incubated with ectoine, glucosylglycerole and prostaglandine for 16 h, whereas the control sample was not treated further. Prostaglandine is known in the literature to stimulate mucus production (Tani et al., Biol Pharm Bull 25 (1), 2002, 14-18).
After the incubation time, cells were stained with a PAS staining kit from Sigma Aldrich to stain the whole mucus on top of the cells. For analysis pictures were taken with the Dino Eye Capture Camera. The pictures were afterwards analyzed with Image J software.
These areas were marked with the Image software Image J and the pixel area was determined. The average results were given as percentage relative to the control (=100%) (FIG. 2).

SMILES	Mucus production (PAS-stained pixel area relative to control = 100%)
CC1=NC(C(=O)O)CCN1 (stereo not drawn) [Ectoine, 1,4,5,6-tetrahydro-2-methyl-pyrimidine-4-carboxylic acid]	showed a tendency to stimulate the mucus production; also recorded: did so, too, although to a lesser extent
CCCCC[C@H](O)/C=C/[C@H]1[C@H](O)CC(=O)[C@@H]1C/C=C\CCCC(=O)O [Prostaglandin E2, reference compound]	showed an induction of mucus production
OCC(CO)O[C@H]1O[C@H](CO)[C@@H](O)[C@H](O)[C@H]1O [glucosylglycerol]	showed a tendency to stimulate the mucus production; also recorded: did so, too, although to a lesser extent
